Source: patent publication EP2535049A1 (Proyecto de Biomedicina Cima, S.L., priority 2011, dated 2012)
“Also recorded” adds a separate entry of the source.

Experiments:
[1] = test system: aged wild type animals (C57/b6xSJL); assay: Fear conditioning test in aged wild type animals; type: in vivo, mice; details: 5-weeks treatment, 15 mg/Kg orally, aged (12-14-month-old) wild type animals, 24h and 7 days after training, vs saline
Experimental: Results were compared with those obtained from age-matched negative littermates (controls). […] After running the MWM, all the animals were trained in the fear conditioning test. The conditioning procedure was carried out in a StartFear system (Panlab S.L.) that allows recording and analysis of the signal generated by the animal movement through a high sensitivity Weight Transducer system. The analogical signal is transmitted to the FREEZING and […] software modules through the load cell unit for recording purposes and posterior analysis in terms of activity/immobility. The conditioning box is housed inside a soundproof chamber, which minimized external stimulation during the conditioning and retention tests. The box was provided with a house light that supplied dim illumination and with a floor grid through which foot shocks could be administered. On training day, the mice were placed in the conditioning chamber for 2 minutes before the onset of a tone at 2800 Hz, 85 dB (conditioned stimulus, CS), which lasted for 30 seconds. The last 2 seconds of the CS was paired with a 0.3 mA foot shock (unconditioned stimulus, US). Thirty seconds after the paired CS-US, mice were returned to their cage. […] Freezing behavior was defined as the lack of movement except for breathing for at least 2 seconds, and was analyzed to give the percentage time freezing during exposure to the chamber. […]

pAkt = assay: Western blot of pAkt in hippocampus of J20 mice; type: in vivo; details: J20 mice treated for 10 weeks, vs saline
Experimental: Results were compared with those obtained from age-matched negative littermates (controls). To test the effect of the PDE5 inhibitors in cognition capacity related to aging, a second treatment was carried out using 10-12 month-old non-transgenic (wild type) mice on an inbred C57/B6xSJL genetic background.
Twenty four hours after the fear conditioning test, animals (n=5, per group) were sacrificed and the brains removed for biochemical studies. The cortex and hippocampus were dissected, homogenized, and processed as described below for subsequent western blot analysis. […]
Total tissue homogenates were obtained by homogenizing the hippocampus in a cold lysis buffer with protease inhibitors (0.2 M NaCl, 0.1 M HEPES, 10% glycerol, 200 mM NaF, 2 mM Na4P2O7, 5 mM EDTA, 1 mM EGTA, 2 mM DTT, 0.5 mM PMSF, 1 mM Na3VO4, 1 mM benzamidine, 10 µg/ml leupeptin, 400 U/ml aprotinin), centrifuged at 14,000 x g 4 °C for 20 minutes and the supernatant was aliquoted and stored at -80 °C. Total protein concentrations were determined using the BioRad Bradford protein assay (BioRad Laboratories).
Protein samples were mixed with an equal volume of 2 x Laemmli sample buffer, resolved onto SDS-polyacrylamide gels and transferred to nitrocellulose membrane. […] Quantity OneTM software v.4.6.3 (Bio-Rad) was used for quantification.

J20 mouse model of AD = assay: Morris water maze in J20 mouse model of AD; type: in vivo, mice; details: for escape latencies in the hidden platform phase: 4-week treatment, 15 mg/kg/day orally, 20 month old J20 mice, data not shown; for MWM performance, escape latencies in the invisible platform phase / percentage of time spent in the right quadrant (memory retention): 10 weeks of treatment; for MWM performance, escape latencies in the invisible platform phase: 15 mg/Kg orally once daily, 21-22 month-old J20 mice, vs saline; for percentage of time spent in the right quadrant (memory retention): platform removed, days 7 and 9, 15 mg/Kg, J20 mice, randomness = 25%
Experimental: Transgenic mice overexpressing human amyloid precursor protein (hAPP) with the Swedish (K670N/M671L) and Indiana (V717F) familial AD mutations under control of the PDGF β-chain promoter were used (J20 line) (Mucke et al, 2000). The mice were on an inbred C57BL/6J genetic background. […] Results were compared with those obtained from age-matched negative littermates (controls). To test the effect of the PDE5 inhibitors in cognition capacity related to aging, a second treatment was carried out using 10-12 month-old non-transgenic (wild type) mice on an inbred C57/B6xSJL genetic background. […] The MWM test was used to evaluate spatial memory as previously described (Hsiao et al., 1996; Reed et al., 2010; Ricobaraza et al., 2009). After treatments, groups of animals underwent spatial reference learning and memory testing in the MWM. The water maze was a circular pool (diameter 1.2 m) filled with water maintained at 20 °C and made opaque by the addition of non-toxic white paint. Mice were trained for three consecutive days (8 trials/day) swimming to a raised platform (visible-platform). No distal visible cues were present during this phase. The same platform location was used for all visible-platform sessions and was changed for the invisible-platform training (submerged 1 cm beneath the surface) conducted over […] (4 trials/day) with all visible distal cues present in this phase. In both visible- and hidden-platform versions, mice were placed pseudo-randomly in selected locations, facing toward the wall of the pool to eliminate the potentially confounding contribution of extramaze spatial cues. Each trial was terminated when the mouse reached the platform or after 60 seconds, whichever came first. To test the retention, three probe trials were performed at the beginning of 4th, 7th, and the last day of the test (day 9). In the probe trials the platform was removed from the pool, and the percentage of time spent in the quadrant where the platform was previously set was recorded. All trials were monitored by a camera above the center of the pool connected to a SMART-LD program (Panlab S.L., Barcelona, Spain) for subsequent analysis of escape latencies, swimming speed, path length and percent time spent in each quadrant of the pool during probe trials. All experimental procedures were performed blind to groups.

Row | SMILES | learning ability and memory retention in the FC test [1] | level of pAkt (pAkt) | escape latencies in the hidden platform phase (J20 mouse model of AD) | MWM performance, escape latencies in the invisible platform phase (J20 mouse model of AD) | percentage of time spent in the right quadrant (memory retention) (J20 mouse model of AD) | MWM performance, escape latencies in the invisible platform phase (J20 mouse model of AD; 15 mg/kg)
1 | CCCc1nn(C)c2c(=O)[nH]c(-c3cc(S(=O)(=O)N4CCN(C)CC4)ccc3OCC)nc12 [sildenafil] | significant enhancement of memory; also recorded: only observed in the FC test (24h after training) | reduction was reverted | no significant differences were detected | markedly improves the performance | higher than 25% | –
2 | CN1CC(=O)N2[C@H](c3ccc4c(c3)OCO4)c3[nH]c4ccccc4c3C[C@@H]2C1=O [tadalafil, (6R-trans)-6-(1,3-benzodioxol-5-yl)-2,3,6,7,12,12a-hexahydro-2-methyl-pyrazino [1',2':1,6] pyrido [3,4-b]indole-1,4-dione] | significant enhancement of memory; also recorded: improved learning ability and memory retention | reduction was reverted; also recorded: higher than that of sildenafil | no significant differences were detected | – | higher than 25% | even better than those of non-transgenic mice; also recorded: cognitive improvement was higher in the group of tadalafil than in the group of sildenafil; also recorded: markedly improves the performance
